{
  "source": "ChEMBL document CHEMBL5678818",
  "about": "“Discovery of potent SOS1 inhibitors that block RAS activation via disruption of the RAS-SOS1 interaction” (Proc Natl Acad Sci U S A, 2019)",
  "key": {"[1]": {"target": "5'-AMP-activated protein kinase catalytic subunit alpha-1 (Homo sapiens) (UniProt Q13131)", "sequence (Q13131 whole entry, looked up)": "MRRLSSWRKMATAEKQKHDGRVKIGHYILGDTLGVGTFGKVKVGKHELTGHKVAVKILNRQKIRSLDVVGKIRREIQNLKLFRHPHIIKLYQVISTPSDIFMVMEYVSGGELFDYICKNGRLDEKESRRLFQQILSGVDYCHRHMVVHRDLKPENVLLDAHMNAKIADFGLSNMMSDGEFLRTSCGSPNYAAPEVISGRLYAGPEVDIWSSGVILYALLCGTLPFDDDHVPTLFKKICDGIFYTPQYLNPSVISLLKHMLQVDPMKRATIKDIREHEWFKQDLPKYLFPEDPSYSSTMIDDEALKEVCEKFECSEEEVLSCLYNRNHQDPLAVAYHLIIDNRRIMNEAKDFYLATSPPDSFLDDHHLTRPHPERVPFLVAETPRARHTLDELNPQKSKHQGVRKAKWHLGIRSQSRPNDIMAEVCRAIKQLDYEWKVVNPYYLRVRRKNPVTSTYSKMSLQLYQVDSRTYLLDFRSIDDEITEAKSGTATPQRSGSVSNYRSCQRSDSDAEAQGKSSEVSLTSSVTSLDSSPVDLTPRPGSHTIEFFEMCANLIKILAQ", "experiment": "Inhibition of AMPK-alpha1 (unknown origin) assessed as residual activity at 100 nM by KINOMEscan analysis relative to control"}, "[2]": {"target": "Tyrosine-protein kinase Blk (Homo sapiens) (UniProt P51451)", "sequence (P51451 2-505 limits assumed)": "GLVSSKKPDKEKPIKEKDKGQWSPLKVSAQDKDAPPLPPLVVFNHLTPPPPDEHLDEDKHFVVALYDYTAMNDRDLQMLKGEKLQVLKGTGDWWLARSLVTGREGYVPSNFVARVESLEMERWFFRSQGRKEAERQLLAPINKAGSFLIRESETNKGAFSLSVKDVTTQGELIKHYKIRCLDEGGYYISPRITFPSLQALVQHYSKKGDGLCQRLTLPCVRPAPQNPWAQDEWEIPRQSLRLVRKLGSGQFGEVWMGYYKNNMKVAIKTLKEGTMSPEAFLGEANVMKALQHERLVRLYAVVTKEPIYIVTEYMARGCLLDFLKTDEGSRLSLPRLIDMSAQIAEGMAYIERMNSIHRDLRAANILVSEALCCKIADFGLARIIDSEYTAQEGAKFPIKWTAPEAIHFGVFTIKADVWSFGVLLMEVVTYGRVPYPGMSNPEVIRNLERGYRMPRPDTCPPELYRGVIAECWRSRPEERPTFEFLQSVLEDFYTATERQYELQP", "experiment": "Inhibition of BLK (unknown origin) assessed as residual activity at 100 nM by KINOMEscan analysis relative to control"}, "[3]": {"target": "Dual specificity protein kinase CLK4 (Homo sapiens) (UniProt Q9HAZ1)", "sequence (Q9HAZ1 whole entry, looked up)": "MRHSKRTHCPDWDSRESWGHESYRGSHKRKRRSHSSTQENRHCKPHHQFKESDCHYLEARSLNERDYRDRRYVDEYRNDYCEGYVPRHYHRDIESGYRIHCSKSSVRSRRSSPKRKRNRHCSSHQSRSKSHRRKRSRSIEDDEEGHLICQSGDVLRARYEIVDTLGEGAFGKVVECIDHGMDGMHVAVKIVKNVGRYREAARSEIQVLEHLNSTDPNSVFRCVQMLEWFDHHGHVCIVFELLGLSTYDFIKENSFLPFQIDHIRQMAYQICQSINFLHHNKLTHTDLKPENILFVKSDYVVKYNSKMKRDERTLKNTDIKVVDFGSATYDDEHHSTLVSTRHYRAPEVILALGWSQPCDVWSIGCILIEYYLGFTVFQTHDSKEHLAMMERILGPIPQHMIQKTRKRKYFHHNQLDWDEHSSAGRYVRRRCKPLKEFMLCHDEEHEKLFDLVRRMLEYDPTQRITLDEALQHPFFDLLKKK", "experiment": "Inhibition of CLK4 (unknown origin) assessed as residual activity at 100 nM by KINOMEscan analysis relative to control"}, "[4]": {"target": "Focal adhesion kinase 1 (Homo sapiens) (UniProt Q05397)", "sequence (Q05397 2-1052 limits assumed)": "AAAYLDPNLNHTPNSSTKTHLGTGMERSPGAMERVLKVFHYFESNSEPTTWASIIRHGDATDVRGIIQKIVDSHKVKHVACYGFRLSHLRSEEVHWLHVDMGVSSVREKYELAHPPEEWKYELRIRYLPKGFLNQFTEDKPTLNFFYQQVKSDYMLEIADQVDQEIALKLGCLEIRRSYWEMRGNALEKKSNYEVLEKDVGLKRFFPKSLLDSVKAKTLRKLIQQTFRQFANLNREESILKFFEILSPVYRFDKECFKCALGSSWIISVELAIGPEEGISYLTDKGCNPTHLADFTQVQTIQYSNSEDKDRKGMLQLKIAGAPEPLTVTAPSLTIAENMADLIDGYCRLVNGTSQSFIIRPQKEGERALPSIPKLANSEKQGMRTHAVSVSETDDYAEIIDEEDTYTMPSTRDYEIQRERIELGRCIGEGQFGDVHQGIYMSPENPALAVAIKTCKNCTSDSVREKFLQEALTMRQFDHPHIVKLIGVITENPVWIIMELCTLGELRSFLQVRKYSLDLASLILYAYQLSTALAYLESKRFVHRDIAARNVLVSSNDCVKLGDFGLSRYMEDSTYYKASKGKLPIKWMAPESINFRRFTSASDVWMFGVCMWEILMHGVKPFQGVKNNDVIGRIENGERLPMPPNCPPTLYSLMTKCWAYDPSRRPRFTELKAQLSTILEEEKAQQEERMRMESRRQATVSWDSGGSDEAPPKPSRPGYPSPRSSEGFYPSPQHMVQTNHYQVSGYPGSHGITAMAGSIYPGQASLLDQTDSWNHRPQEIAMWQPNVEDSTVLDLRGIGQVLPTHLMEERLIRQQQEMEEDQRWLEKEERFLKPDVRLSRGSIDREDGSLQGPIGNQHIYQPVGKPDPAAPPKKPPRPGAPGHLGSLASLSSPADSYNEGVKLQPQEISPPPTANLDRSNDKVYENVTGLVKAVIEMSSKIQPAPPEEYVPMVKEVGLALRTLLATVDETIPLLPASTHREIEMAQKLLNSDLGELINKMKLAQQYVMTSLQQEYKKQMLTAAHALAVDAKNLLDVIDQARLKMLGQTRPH", "experiment": "Inhibition of FAK (unknown origin) assessed as residual activity at 100 nM by KINOMEscan analysis relative to control"}, "[5]": {"target": "T1, Serine/threonine-protein kinase STK11 (Homo sapiens) (UniProt Q15831)", "T1 sequence (whole entry)": "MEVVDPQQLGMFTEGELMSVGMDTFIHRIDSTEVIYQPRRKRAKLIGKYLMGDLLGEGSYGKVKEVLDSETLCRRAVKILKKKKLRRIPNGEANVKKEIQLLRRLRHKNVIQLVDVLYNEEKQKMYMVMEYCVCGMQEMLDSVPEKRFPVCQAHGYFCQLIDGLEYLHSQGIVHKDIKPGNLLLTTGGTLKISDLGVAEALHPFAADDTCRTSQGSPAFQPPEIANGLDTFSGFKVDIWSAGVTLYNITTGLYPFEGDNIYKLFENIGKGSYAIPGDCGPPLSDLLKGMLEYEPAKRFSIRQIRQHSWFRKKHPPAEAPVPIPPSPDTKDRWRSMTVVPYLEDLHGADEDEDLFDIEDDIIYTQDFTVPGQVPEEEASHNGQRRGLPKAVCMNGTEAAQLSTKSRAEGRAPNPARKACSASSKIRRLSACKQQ", "experiment": "Inhibition of LKB1 (unknown origin) assessed as residual activity at 100 nM by KINOMEscan analysis relative to control"}, "[6]": {"target": "T2, Serine/threonine-protein kinase Nek2 (Homo sapiens) (UniProt P51955)", "T2 sequence (whole entry)": "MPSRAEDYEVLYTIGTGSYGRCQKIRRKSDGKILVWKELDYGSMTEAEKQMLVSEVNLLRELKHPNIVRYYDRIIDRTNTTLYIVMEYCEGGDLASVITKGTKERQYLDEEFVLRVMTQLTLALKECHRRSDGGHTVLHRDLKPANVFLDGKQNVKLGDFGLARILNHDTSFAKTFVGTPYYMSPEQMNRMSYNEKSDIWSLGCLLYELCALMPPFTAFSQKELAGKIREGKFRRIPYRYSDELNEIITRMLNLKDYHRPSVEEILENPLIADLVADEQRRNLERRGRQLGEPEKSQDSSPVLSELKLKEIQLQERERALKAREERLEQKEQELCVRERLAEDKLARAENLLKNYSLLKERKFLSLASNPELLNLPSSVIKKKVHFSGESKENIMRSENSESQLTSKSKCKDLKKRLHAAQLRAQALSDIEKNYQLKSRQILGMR", "experiment": "Inhibition of NEK2 (unknown origin) assessed as residual activity at 100 nM by KINOMEscan analysis relative to control"}, "[7]": {"target": "Platelet-derived growth factor receptor alpha (Homo sapiens) (UniProt P16234)", "sequence (P16234 whole entry)": "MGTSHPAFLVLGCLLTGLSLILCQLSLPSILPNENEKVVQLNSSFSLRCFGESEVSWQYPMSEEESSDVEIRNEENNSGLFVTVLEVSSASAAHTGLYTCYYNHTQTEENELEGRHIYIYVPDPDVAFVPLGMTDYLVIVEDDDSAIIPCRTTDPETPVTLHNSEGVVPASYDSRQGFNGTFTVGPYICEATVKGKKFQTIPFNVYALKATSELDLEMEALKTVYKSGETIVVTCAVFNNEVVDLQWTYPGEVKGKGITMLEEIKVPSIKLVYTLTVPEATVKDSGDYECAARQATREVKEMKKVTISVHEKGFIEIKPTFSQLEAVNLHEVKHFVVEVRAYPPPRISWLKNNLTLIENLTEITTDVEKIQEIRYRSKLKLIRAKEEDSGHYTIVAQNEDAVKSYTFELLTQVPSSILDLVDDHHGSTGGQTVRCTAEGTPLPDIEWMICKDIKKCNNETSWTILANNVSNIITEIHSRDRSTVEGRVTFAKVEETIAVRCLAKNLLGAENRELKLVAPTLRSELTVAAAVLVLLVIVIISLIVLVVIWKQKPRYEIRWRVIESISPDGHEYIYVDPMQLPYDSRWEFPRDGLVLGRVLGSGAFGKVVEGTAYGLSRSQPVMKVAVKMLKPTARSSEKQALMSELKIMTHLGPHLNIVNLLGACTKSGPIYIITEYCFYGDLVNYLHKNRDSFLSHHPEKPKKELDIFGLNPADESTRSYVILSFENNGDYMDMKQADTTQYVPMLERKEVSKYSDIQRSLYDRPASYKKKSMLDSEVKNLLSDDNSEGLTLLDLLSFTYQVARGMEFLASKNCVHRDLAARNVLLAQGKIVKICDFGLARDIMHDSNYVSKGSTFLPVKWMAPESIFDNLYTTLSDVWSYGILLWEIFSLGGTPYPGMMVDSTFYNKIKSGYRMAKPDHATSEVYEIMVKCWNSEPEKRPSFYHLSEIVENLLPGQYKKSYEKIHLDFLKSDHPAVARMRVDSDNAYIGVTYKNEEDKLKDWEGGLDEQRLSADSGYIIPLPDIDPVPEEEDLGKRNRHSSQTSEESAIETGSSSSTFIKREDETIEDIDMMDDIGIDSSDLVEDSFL", "experiment": "Inhibition of PDGFRA (unknown origin) assessed as residual activity at 100 nM by KINOMEscan analysis relative to control"}, "[8]": {"target": "Phosphatidylinositol 4-phosphate 5-kinase type-1 alpha (Homo sapiens) (UniProt Q99755)", "sequence (Q99755 whole entry)": "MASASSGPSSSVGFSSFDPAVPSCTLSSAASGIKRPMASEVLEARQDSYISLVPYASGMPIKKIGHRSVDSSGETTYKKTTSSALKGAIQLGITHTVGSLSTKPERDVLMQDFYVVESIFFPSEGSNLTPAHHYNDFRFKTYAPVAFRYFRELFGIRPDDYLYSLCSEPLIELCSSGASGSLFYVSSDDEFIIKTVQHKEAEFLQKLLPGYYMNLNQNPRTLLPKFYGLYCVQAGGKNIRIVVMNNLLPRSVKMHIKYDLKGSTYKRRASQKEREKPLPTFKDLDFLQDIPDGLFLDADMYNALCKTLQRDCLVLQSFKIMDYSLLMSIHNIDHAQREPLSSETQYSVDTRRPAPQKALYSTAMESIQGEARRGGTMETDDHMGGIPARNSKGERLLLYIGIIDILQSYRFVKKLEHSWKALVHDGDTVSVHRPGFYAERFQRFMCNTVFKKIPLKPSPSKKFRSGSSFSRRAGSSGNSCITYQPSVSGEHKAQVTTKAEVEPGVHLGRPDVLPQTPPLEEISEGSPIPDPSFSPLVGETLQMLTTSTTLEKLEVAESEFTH", "experiment": "Inhibition of PIP5K1A (unknown origin) assessed as residual activity at 100 nM by KINOMEscan analysis relative to control"}, "[9]": {"target": "Serine/threonine-protein kinase PLK1 (Homo sapiens) (UniProt P53350)", "sequence (P53350 whole entry)": "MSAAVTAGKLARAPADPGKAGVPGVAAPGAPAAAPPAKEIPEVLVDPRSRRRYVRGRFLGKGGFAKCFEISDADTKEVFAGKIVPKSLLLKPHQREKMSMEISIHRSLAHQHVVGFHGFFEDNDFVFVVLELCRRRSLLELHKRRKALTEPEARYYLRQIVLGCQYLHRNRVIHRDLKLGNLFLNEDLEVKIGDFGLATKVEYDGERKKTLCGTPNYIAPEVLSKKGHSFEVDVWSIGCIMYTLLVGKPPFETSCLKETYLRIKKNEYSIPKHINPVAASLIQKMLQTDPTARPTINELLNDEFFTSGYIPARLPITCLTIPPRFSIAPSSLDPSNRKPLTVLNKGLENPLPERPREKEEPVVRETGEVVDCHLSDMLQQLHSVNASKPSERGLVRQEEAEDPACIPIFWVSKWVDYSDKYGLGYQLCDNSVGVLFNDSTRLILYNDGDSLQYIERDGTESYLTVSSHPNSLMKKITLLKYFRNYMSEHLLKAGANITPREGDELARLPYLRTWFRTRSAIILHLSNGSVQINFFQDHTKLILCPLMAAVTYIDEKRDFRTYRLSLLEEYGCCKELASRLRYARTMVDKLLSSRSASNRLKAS", "experiment": "Inhibition of PLK1 (unknown origin) assessed as residual activity at 100 nM by KINOMEscan analysis relative to control"}, "[10]": {"target": "T3, Serine/threonine-protein kinase 36 (Homo sapiens) (UniProt Q9NRP7)", "T3 sequence (whole entry)": "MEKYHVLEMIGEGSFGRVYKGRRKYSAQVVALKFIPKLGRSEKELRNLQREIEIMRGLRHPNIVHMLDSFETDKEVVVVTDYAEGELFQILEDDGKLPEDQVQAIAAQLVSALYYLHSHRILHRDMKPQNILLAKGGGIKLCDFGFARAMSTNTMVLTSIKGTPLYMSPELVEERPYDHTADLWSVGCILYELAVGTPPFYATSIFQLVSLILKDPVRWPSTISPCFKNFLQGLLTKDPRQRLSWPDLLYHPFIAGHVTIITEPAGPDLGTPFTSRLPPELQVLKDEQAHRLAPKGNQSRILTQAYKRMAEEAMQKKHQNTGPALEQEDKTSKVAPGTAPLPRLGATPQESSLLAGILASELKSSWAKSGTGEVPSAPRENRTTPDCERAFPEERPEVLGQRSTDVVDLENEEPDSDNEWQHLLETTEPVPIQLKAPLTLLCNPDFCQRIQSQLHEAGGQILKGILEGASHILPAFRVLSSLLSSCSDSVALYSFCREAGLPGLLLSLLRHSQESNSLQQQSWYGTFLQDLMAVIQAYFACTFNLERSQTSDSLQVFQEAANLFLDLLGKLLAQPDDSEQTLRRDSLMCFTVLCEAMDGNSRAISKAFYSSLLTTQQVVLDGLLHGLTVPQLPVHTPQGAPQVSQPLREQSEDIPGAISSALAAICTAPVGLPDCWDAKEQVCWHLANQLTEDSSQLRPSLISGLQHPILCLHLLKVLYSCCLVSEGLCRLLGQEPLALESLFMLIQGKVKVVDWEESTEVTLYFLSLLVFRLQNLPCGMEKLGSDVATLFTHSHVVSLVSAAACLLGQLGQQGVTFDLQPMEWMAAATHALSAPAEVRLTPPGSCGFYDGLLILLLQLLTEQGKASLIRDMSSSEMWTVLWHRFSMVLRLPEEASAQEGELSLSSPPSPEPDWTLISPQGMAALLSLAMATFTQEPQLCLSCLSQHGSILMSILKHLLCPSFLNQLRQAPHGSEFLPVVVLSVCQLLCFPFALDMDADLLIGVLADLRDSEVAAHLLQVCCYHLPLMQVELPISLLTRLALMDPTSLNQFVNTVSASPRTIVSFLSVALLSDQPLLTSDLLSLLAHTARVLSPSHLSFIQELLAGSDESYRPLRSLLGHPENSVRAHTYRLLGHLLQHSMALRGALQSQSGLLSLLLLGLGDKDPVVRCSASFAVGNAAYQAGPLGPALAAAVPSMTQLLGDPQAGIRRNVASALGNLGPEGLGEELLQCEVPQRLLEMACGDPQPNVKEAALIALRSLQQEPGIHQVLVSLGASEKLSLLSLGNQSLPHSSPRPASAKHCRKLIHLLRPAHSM", "experiment": "Inhibition of STK36 (unknown origin) assessed as residual activity at 100 nM by KINOMEscan analysis relative to control"}},
  "data": [
    {"smiles": "COc1cc2ncnc(N[C@H](C)c3cccc4ccccc34)c2cc1OC", "values": [
      {"measurement": "Activity", "setting": "[1]", "value": 92, "unit": "%"},
      {"measurement": "Activity", "setting": "[2]", "value": 77, "unit": "%"},
      {"measurement": "Activity", "setting": "[3]", "value": 87, "unit": "%"},
      {"measurement": "Activity", "setting": "[4]", "value": 100, "unit": "%"},
      {"measurement": "Activity", "setting": "[5]", "value": 100, "unit": "%"},
      {"measurement": "Activity", "setting": "[6]", "value": 100, "unit": "%"},
      {"measurement": "Activity", "setting": "[7]", "value": 100, "unit": "%"},
      {"measurement": "Activity", "setting": "[8]", "value": 90, "unit": "%"},
      {"measurement": "Activity", "setting": "[9]", "value": 85, "unit": "%"},
      {"measurement": "Activity", "setting": "[10]", "value": 80, "unit": "%"}
    ]}
  ]
}
